Data reported in patent US8088410B2, “25-hydroxy Vitamin D3 compositions” (DSM IP Assets B.V., priority 2002, dated 2012).

Test: Premix stability: percent retention of 25-hydroxy Vitamin D3 in stored feed premixes (Example 7)
Type: physicochemical
Settings: Basic and Vitamin Premixes, stored at 25° C. and 35° C. up to 3 months (FIGS. 6 and 7)
Description: Three premixes for use in animal feed were prepared having the following components in the following proportions by percent weight based on the total weight of the premix.
Each of these premix compositions was prepared using a microencapsulated oil of the present invention or a prior art beadlet containing 25-hydroxy Vitamin D3. In addition, a control formulation was prepared, in which Vitamin D3 was substituted for the 25-hydroxy Vitamin D3. Each of the premixes was stored at 25° C. and 35° C., for a length of time up to 3 months. The percent retention of the 25-hydroxy Vitamin D3 was determined at each time and temperature.

SMILES: C=C1CCC(O)C/C1=C/C=C1\CCCC2(C)C1CCC2C(C)CCCC(C)(C)O (stereo not shown) [25-hydroxy Vitamin D3]
- stability of 25-hydroxy Vitamin D3 (% retention) in premix: less than that of Vitamin D3
